Entries after “also recorded” stand apart in the source; their conditions may differ.
Experiments:
IRE1 [1] = biological target: T1, IRE1 (Homo sapiens, UniProt O75460); assay: SelectScreen kinase profiling, IRE1; format: biochemical; conditions: 1 µM, 1 h
Description: The kinome selectivity of G6374 was assessed at 1 μM for 1 h versus a panel of 220 human kinases (SelectScreen Kinase Profiling Services, Thermo Fisher Scientific). The assays were conducted using either the Z’-LYTE technology to assess inhibition of enzyme activity ([ATP] = Km) or the TR-FRET-based LanthaScreen Eu Kinase Binding assay to assess competitive displacement of an ATP site binding probe. Assay results were normalized to positive and negative controls to determine percent inhibition. Image was created by KNIME Report Designer (KNIME.com AG, Zurich, Switzerland). Kinases for which ATP binding was inhibited by more than 90% were further examined by IB analysis for depletion by G6374 in AMO1 cells (4 h incubation).

IRE1:VHL = IRE1:VHL (Homo sapiens, UniProt O75460+P40337); assay: NanoBRET IRE1:VHL interaction, WT IRE1, HEK293T cells; format: cell-based; set-up: N2731 (HaloTag-VHL); host or cells: HEK293T
Sequence of IRE1:VHL (O75460 19-977): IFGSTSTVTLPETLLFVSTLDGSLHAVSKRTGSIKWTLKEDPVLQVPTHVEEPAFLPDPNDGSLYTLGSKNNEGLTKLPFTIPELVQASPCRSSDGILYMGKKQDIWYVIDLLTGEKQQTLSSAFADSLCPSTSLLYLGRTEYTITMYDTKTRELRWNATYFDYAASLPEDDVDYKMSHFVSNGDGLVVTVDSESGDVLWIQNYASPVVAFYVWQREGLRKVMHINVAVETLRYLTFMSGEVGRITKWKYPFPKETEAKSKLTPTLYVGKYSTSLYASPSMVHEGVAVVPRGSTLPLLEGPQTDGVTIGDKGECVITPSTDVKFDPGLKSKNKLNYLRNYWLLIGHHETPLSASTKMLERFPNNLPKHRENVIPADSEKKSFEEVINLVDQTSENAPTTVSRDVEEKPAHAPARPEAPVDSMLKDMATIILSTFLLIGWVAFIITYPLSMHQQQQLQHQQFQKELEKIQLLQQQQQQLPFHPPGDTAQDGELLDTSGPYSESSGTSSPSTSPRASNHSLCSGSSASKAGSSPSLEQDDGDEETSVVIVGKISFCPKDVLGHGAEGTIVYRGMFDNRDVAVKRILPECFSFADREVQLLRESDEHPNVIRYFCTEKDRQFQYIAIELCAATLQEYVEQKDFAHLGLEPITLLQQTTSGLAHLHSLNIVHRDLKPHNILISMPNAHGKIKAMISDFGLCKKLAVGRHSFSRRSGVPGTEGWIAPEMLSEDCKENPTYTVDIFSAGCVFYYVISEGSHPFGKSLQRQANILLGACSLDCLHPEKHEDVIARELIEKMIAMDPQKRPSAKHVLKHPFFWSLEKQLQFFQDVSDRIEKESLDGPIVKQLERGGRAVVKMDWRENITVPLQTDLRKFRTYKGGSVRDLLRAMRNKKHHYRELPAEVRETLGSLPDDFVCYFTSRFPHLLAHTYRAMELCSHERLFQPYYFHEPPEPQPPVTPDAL
Sequence of IRE1:VHL (P40337 whole entry, the tested form may be a part): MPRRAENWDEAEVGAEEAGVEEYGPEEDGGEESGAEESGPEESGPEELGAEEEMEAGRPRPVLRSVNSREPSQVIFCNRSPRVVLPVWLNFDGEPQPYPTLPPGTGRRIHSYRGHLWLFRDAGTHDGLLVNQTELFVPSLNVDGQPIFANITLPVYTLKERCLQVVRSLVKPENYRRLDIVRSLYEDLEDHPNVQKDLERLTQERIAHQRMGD
Sequence of IRE1:VHL (Q15369 whole entry partner, the tested form may be a part): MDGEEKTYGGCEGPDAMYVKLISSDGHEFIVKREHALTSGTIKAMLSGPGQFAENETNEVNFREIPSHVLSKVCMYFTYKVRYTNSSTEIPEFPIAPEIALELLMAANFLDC
Sequence of IRE1:VHL (Q15370 whole entry partner, the tested form may be a part): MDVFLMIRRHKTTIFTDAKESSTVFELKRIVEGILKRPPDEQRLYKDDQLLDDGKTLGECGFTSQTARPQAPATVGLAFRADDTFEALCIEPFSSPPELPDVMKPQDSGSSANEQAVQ
Sequence of IRE1:VHL (Q13617 whole entry partner, the tested form may be a part): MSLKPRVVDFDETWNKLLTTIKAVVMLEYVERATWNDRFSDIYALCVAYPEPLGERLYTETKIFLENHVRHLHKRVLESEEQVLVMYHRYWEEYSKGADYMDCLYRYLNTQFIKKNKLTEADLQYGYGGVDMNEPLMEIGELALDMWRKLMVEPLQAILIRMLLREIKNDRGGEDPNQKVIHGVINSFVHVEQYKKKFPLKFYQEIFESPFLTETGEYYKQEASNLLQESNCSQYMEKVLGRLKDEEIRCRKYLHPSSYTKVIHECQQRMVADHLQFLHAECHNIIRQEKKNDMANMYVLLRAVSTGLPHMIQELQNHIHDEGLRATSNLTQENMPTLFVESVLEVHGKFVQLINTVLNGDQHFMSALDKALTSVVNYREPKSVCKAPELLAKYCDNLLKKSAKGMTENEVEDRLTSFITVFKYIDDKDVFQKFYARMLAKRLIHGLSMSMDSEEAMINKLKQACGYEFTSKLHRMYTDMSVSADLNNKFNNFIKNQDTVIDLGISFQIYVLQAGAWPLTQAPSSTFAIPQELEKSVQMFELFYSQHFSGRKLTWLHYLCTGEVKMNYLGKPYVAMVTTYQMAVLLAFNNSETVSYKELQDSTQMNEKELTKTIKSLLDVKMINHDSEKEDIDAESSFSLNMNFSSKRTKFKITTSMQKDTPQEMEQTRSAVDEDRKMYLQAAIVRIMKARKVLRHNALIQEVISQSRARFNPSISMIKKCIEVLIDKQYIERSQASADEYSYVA
Sequence of IRE1:VHL (P62877 whole entry partner, the tested form may be a part): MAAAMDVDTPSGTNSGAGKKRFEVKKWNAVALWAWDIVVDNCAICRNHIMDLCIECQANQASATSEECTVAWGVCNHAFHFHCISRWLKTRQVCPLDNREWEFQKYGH
Description: 8 × 10^5 293T cells per well were seeded in 6-well plates (Costar, #3516) and incubated at 37 °C, 5% CO2 for 6 h. A mixture of 0.2 µg ERN1 (IRE1)-NanoLuc Fusion Vector (Promega, NV1321), 2 µg HaloTag-VHL Fusion Vector (Promega, N2731), 6 µl FuGENE HD Transfection Reagent (Promega, E2311), and 100 µL Opti-MEM I reduced serum medium (Gibco, #31985062) per well was incubated at room temperature for 20 min before adding to cells. For expression of IRE1 mutants, site-directed mutagenesis was performed using the ERN1-NanoLuc Fusion Vector as the DNA template, and the transfection mixture was prepared in the same way as WT IRE1. After 18 h, cells from 6-well plates were trypsinized, resuspended in Opti-MEM I reduced serum medium, and reseeded into 96-well plates (Costar, #3917), with or without the addition of HaloTag NanoBRET 618 Ligand (Promega, G9801). […] After 2 h of G6374 treatment, NanoBRET Nano-Glo Substrate (Promega, N1571) was added to cells. The 96-well plates were imaged by GloMax Discover Microplate Reader (Promega, GM3000) with the default “BRET: NanoBRET 618” protocol (Donor: 450 BP; Acceptor: 600 LP; Integration: 0.3 s). Data analysis was performed according to the user manual.

IRE1 [2] = biological target: T1, IRE1; assay: Immunoblot of endogenous IRE1 depletion in AMO1 cells; format: cell-based; set-up: Immunoblot (IB) analysis of endogenous IRE1 depletion in AMO1 cells; endogenous in cells; host or cells: AMO1
Description: Cells were lysed in buffer containing 20 mM HEPES 7.2, 150 mM NaCl, and 1% Triton X-100, supplemented with fresh protease and phosphatase inhibitors (Invitrogen, #78440), cleared by centrifugation at 12,000 × g for 10 min, and analyzed by BCA protein assay (Thermo Fisher Scientific, #23227). Equal protein amounts were loaded, separated by SDS-PAGE, electrotransferred to nitrocellulose membranes using the iBLOT2 system (Invitrogen), and blocked in 5% nonfat milk solution for 60 min. Membranes were probed with primary antibodies at 1:1000 dilution in 5% milk at 4 °C overnight. Signal was detected using appropriate horseradish peroxidase (HRP)-conjugated secondary antibodies at 1:10,000 in 5% milk at room temperature for 1–2 h. Bands were visualized by the Azure 600 western blot imaging system (Azure Biosystems). For in vitro ubiquitination assays performed with Me-Ub, bands were visualized by the Odyssey CLx Imager (LI‑COR) after incubating the blots with the IRDye 800CW (LI-COR) secondary antibodies at 1:10,000 in Intercept Blocking Buffer (LI-COR) at room temperature for 1–2 h.

TAO2 = biological target: T2, TAO2 (Homo sapiens, UniProt Q9UL54); assay: Immunoblot of TAO2 depletion; format: cell-based; conditions: AMO1 and KMS27 cells, 4 h
T2 construct: endogenous in cells; host or cells: AMO1, KMS27
T2 sequence (Q9UL54 whole entry): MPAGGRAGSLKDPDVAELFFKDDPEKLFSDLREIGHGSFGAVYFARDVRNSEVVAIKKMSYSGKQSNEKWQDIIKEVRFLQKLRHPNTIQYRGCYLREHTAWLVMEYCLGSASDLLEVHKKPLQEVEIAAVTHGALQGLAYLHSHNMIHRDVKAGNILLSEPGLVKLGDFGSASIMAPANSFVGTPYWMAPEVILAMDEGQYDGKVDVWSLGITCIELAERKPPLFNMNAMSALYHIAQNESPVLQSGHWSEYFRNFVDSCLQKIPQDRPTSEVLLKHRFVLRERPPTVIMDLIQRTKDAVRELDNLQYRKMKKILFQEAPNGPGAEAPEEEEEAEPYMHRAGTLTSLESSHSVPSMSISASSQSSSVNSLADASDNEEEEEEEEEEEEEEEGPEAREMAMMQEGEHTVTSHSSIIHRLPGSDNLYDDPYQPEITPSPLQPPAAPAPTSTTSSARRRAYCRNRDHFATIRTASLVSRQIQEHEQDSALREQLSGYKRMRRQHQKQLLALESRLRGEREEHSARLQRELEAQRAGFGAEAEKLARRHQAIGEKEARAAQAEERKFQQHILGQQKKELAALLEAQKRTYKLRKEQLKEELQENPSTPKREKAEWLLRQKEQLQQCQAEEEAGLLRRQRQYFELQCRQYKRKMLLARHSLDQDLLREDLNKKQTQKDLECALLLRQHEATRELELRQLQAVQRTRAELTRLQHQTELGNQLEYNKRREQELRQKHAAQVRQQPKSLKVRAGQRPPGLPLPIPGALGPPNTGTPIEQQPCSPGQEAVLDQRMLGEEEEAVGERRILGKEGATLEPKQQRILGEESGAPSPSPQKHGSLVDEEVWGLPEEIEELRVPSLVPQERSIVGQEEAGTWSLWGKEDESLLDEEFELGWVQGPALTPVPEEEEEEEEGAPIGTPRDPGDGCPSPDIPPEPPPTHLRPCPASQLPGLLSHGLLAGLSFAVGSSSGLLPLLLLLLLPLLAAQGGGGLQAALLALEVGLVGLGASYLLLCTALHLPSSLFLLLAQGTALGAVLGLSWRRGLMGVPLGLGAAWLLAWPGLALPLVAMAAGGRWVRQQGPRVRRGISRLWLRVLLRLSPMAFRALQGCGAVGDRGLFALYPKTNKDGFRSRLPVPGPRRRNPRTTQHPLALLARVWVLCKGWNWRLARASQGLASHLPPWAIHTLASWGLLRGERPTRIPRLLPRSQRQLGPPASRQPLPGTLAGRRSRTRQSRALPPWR
Description: (§1) Cells were lysed in buffer containing 20 mM HEPES 7.2, 150 mM NaCl, and 1% Triton X-100, supplemented with fresh protease and phosphatase inhibitors (Invitrogen, #78440), cleared by centrifugation at 12,000 × g for 10 min, and analyzed by BCA protein assay (Thermo Fisher Scientific, #23227). Equal protein amounts were loaded, separated by SDS-PAGE, electrotransferred to nitrocellulose membranes using the iBLOT2 system (Invitrogen), and blocked in 5% nonfat milk solution for 60 min. Membranes were probed with primary antibodies at 1:1000 dilution in 5% milk at 4 °C overnight. Signal was detected using appropriate horseradish peroxidase (HRP)-conjugated secondary antibodies at 1:10,000 in 5% milk at room temperature for 1–2 h. Bands were visualized by the Azure 600 western blot imaging system (Azure Biosystems). For in vitro ubiquitination assays performed with Me-Ub, bands were visualized by the Odyssey CLx Imager (LI‑COR) after incubating the blots with the IRDye 800CW (LI-COR) secondary antibodies at 1:10,000 in Intercept Blocking Buffer (LI-COR) at room temperature for 1–2 h. […]
(§2) The kinome selectivity of G6374 was assessed at 1 μM for 1 h versus a panel of 220 human kinases (SelectScreen Kinase Profiling Services, Thermo Fisher Scientific). […]

[3] = test system: kinases inhibited by 90% or more; assay: Immunoblot of kinases inhibited by 90% or more, for depletion in AMO1 and KMS27 cells; format: cell-based; conditions: AMO1 and KMS27 cells, 0.1, 0.3 and 1 µM, 4 h
Description: as §1, §2

[4] = AMO1 cells, 17 h, immunoblot quantification, n = 4, mean ± SEM

T1 sequence (O75460 19-977): as the sequence (O75460 19-977) above

## Cc1ncsc1-c1ccc(CNC(=O)[C@@H]2C[C@@H](O)CN2C(=O)[C@@H](NC(=O)CCCCN2CCN([C@H]3CC[C@H](Nc4ncc5ccc(=O)n(C(C)C)c5n4)CC3)CC2)C(C)(C)C)cc1 [G6374]
IRE1 [1]
  inhibition of IRE1: complete inhibition
IRE1:VHL
  EC50: 110 ± 30 nM
IRE1:VHL; WT IRE1, HEK293T, estimated
  EC50 of IRE1:VHL interaction (NanoBRET ratio): 110 nM
IRE1 [2]; AMO1 and KMS27 cells, G6374 3 µM, 2 hr, Tg 100 nM or Tm 5 µg/ml, 6 hr
  IRE1 depletion under ER stress (thapsigargin or tunicamycin): did not encumber G6374-driven IRE1 depletion
IRE1 [2]; AMO1 cells, 1 µM, 0-8 h
  IRE1 depletion over a time course: reaches near maximum levels by 4 hr; also recorded: near complete IRE1 depletion by 4 h
IRE1 [2]; [4]
  DC50: 40 nM
  Dmax: 93%
TAO2
  depletion of TAO2: did not deplete TAO2
[3]
  depletion of the other eight kinases (JNK3 not detectable): not appreciably depleted

Reference: publication PMC12749748, “Chemically-induced degradation of the endoplasmic-reticulum stress sensor IRE1 by a VHL-recruiting chimera” (Nature Communications, 2025)
